The text below walks through data of US12723063B2, “GIPR-agonist compounds” (Eli Lilly and Company, priority 2019, dated 2026).

SMILES strings stand for the structures.

The term CL/F denotes clearance divided by bioavailability, as obtained after extravascular dosing. In general, Tmax refers to the time at which the peak concentration occurs. In general, half-life refers to the time in which the quantity being followed falls by half. A low value points to fast loss.

A short description of data set [1]: Pharmacokinetics in male Sprague Dawley rats, single subcutaneous administration. Type of data set: in vivo, Sprague Dawley rat. To be noted: 100 nmol/kg single SC, mean n = 3 (example 3 n = 1); for CL/F / Tmax / half-life: rat, plasma. The protocol:
The pharmacokinetics of select Examples are evaluated following a single subcutaneous (SC) administration of 100 nmol/kg to male Sprague Dawley rats. Blood samples are collected over 168 hours following SC administration. Pharmacokinetic parameters are calculated using individual plasma concentrations. A qualified LC/MS method that measures the intact mass of the Example is used to determine plasma (K3 EDTA) concentrations. Each peptide and an analog as an internal standard are extracted from 100% rat plasma using a protein precipitation method. Instruments are combined for LC/MS detection. Mean pharmacokinetic parameters for the Examples are shown in […]

For data set [2], the system named is CD4+ T cells (CD8+ T cell-depleted PBMCs). The data set is described as follows: CD4+ T cell proliferation assay (immunogenicity assessment). Format: cell-based, human. To be noted: 0.33 μM, 7 days, 10 healthy donors; positive response CDI>2.5. The protocol:
Protein therapeutics that induce less than 30% positive response in the CD4+ T cell proliferation assay are associated with a low risk of immunogenicity. Briefly, to assess the propensity for a clinical immunogenic response to the compounds of Examples 1, 2, 3, 5, and 6, CD8+ T cell-depleted peripheral blood mononuclear cells (PBMCs) are prepared and labeled with carboxyfluorescein diacetate succinimidyl ester (CFSE; Invitrogen) from a cohort of 10 healthy donors with diverse human leukocyte antigen (HLA) class II haplotypes. Each donor is tested in triplicate with 2.0 mL media control, keyhole limpet hemocyanin (KLH: 0.33 μM), and the compounds of Examples 1, 2, 3, 5, and 6 (0.33 μM). Cultures are incubated for 7 days at 37° C. with 5% CO2. On day 7, samples are analyzed by flow cytometry using a BD LSR II Fortessa (Becton Dickinson; Franklin Lakes, NJ), equipped with a high throughput sampler (HTS). Data is analyzed using FlowJo® Software (FlowJo, LLC/TreeStar; Ashland, OR).
• Cell Division Index (“CDI”): proportion of divided CD4+ T cells to the total number of CD4+ T cells in stimulated versus unstimulated samples.

The subject of data set [3] is insulin secretion. The data set can be described thus: In vivo effect on insulin secretion (ivGTT) in male Wistar rats. Further details: species or system Wistar rat. The protocol: Male Wistar rats with femoral artery and femoral vein canulas (Envigo, Indianapolis, IN) (280-320 grams) are single-housed in polycarbonate cages with filter tops. Rats maintained on a 12:12 h light-dark cycle (lights on at 6:00 A.M.) at 21° C. and receive food and deionized water ad libitum. Rats are randomized by body weight and dosed 1.5 mL/kg subcutaneously (s.c.) at doses of 0.3, 1.0, 3, 10, 30, and 100 nmol/kg 16 hours prior to glucose administration then fasted. Animals are weighed and anesthetized with sodium pentobarbital dosed intraperitoneally (i.p.) (65 mg/kg, 30 mg/mL). At time 0, a blood sample is collected into EDTA tubes after which glucose is administered intravenously (i.v.) ([…], 5 mL/kg). Blood samples are collected for glucose and insulin levels at 2, 4, 6, 10, 20 and 30 min post-intravenous administration of glucose. Plasma glucose levels are determined using a clinical chemistry analyzer. Plasma insulin is determined using an electrochemiluminescence assay (Meso Scale, Gaithersburg, MD). […] Results are presented (SEM)(N).

As to `CC[C@H](C)[C@H](NC(=O)[C@H](Cc1ccccc1)NC(=O)[C@@H](NC(=O)CNC(=O)[C@H](CCC(=O)O)NC(=O)C(C)(C)NC(=O)[C@@H](N)Cc1ccc(O)cc1)[C@@H](C)O)C(=O)N[C@@H](CO)C(=O)N[C@@H](CC(=O)O)C(=O)N[C@@H](Cc1ccc(O)cc1)C(=O)N[C@@H](CO)C(=O)N[C@H](C(=O)N[C@@](C)(CC(C)C)C(=O)N[C@@H](CC(C)C)C(=O)N[C@@H](CC(=O)O)C(=O)N[C@@H](CCCCN)C(=O)N[C@@H](CCCCNC(=O)COCCOCCNC(=O)COCCOCCNC(=O)CC[C@H](NC(=O)CCCCCCCCCCCCCCCCCCC(=O)O)C(=O)O)C(=O)N[C@@H](Cc1c[nH]cn1)C(=O)N[C@@H](CCC(N)=O)C(=O)NC(C)(C)C(=O)N[C@@H](CC(=O)O)C(=O)N[C@@H](Cc1ccccc1)C(=O)N[C@H](C(=O)N[C@@H](CCC(=O)O)C(=O)N[C@@H](Cc1ccncc1)C(=O)N[C@@H](CC(C)C)C(=O)N[C@@H](CC(C)C)C(=O)N[C@@H](CCC(=O)O)C(=O)N[C@@H](C)C(=O)NCC(=O)N1CCC[C@H]1C(=O)N[C@@H](CO)C(=O)N[C@@H](CO)C(=O)NCC(=O)N[C@@H](C)C(=O)N1CCC[C@H]1C(=O)N1CCC[C@H]1C(=O)N1CCC[C@H]1C(=O)N[C@@H](CO)C(N)=O)C(C)C)[C@@H](C)CC` [Example 3], in data set [1], the AUCInf/Dose is listed as 130 hr*kg*nmol/L/nmol, the Cmax/Dose was determined as 3.03 kg*nmol/L/nmol, the CL/F is 7.67 mL/h/kg and the Tmax worked out at 12 h. Further, the half-life in data set [1] is 24.9 h. Moreover, the “% Donor Response (n = 10)” value in data set [2] worked out at 0%.
As for `CC[C@H](C)[C@H](NC(=O)[C@H](CCCCN)NC(=O)[C@H](CC(=O)O)NC(=O)[C@H](CC(C)C)NC(=O)[C@](C)(CC(C)C)NC(=O)[C@@H](NC(=O)[C@H](CO)NC(=O)[C@H](Cc1ccc(O)cc1)NC(=O)[C@H](CC(=O)O)NC(=O)[C@H](CO)NC(=O)[C@@H](NC(=O)[C@H](Cc1ccccc1)NC(=O)[C@@H](NC(=O)CNC(=O)[C@H](CCC(=O)O)NC(=O)C(C)(C)NC(=O)[C@@H](N)Cc1ccc(O)cc1)[C@@H](C)O)[C@@H](C)CC)[C@@H](C)CC)C(=O)N[C@@H](Cc1c[nH]cn1)C(=O)N[C@@H](CCC(N)=O)C(=O)NC(C)(C)C(=O)N[C@@H](CC(=O)O)C(=O)N[C@@H](Cc1ccccc1)C(=O)N[C@H](C(=O)N[C@@H](CCC(=O)O)C(=O)N[C@@H](Cc1ccc(O)cc1)C(=O)N[C@@H](CCCCNC(=O)COCCOCCNC(=O)COCCOCCNC(=O)CC[C@H](NC(=O)CCCCCCCCCCCCCCCCCCC(=O)O)C(=O)O)C(=O)N[C@@H](CC(C)C)C(=O)N[C@@H](CCC(=O)O)C(=O)NCC(=O)NCC(=O)N1CCC[C@H]1C(=O)N[C@@H](CO)C(=O)N[C@@H](CO)C(=O)NCC(=O)N[C@@H](C)C(=O)N1CCC[C@H]1C(=O)N1CCC[C@H]1C(=O)N1CCC[C@H]1C(=O)N[C@@H](CO)C(N)=O)C(C)C` [Example 5], in data set [1], the AUCInf/Dose was determined as 239 hr*kg*nmol/L/nmol. Moreover, the Cmax/Dose in data set [1] is 4.61 kg*nmol/L/nmol. In data set [1], this compound had a CL/F of 4.2 mL/h/kg. In addition, the Tmax in data set [1] was 24 h. The compound also had a half-life in data set [1] of 27.1 h. Moreover, the “insulin secretion during intravenous glucose tolerance test” value turned out to be 36.2 in data set [3] (0.3 nmol/kg s.c. 16 hours prior to glucose); 45.3 in data set [3] (1.0 nmol/kg s.c. 16 hours prior to glucose); 80.6 in data set [3] (3.0 nmol/kg s.c. 16 hours prior to glucose); 122.0 in data set [3] (10 nmol/kg s.c. 16 hours prior to glucose); 144 in data set [3] (30 nmol/kg s.c. 16 hours prior to glucose); 212.7 in data set [3] (100 nmol/kg s.c. 16 hours prior to glucose). Moreover, the “Insulin secretion (ivGTT) ED50” value in data set [3] (s.c., n = 1) is on record as 18.4 (n = 1) nmol/kg. In addition, the “% Donor Response (n = 10)” value in data set [2] stood at 0%.
For `CC[C@H](C)[C@H](NC(=O)[C@H](CCCN)NC(=O)[C@H](CC(=O)O)NC(=O)[C@H](CC(C)C)NC(=O)[C@](C)(CC(C)C)NC(=O)[C@@H](NC(=O)[C@H](CO)NC(=O)[C@H](Cc1ccc(O)cc1)NC(=O)[C@H](CC(=O)O)NC(=O)[C@H](CO)NC(=O)[C@@H](NC(=O)[C@H](Cc1ccccc1)NC(=O)[C@@H](NC(=O)CNC(=O)[C@H](CCC(=O)O)NC(=O)C(C)(C)NC(=O)[C@@H](N)Cc1ccc(O)cc1)[C@@H](C)O)[C@@H](C)CC)[C@@H](C)CC)C(=O)N[C@@H](Cc1c[nH]cn1)C(=O)N[C@@H](CCC(N)=O)C(=O)NC(C)(C)C(=O)N[C@@H](CC(=O)O)C(=O)N[C@@H](Cc1ccccc1)C(=O)N[C@H](C(=O)N[C@@H](CCC(=O)O)C(=O)N[C@@H](Cc1ccc(O)cc1)C(=O)N[C@@H](CCCCNC(=O)COCCOCCNC(=O)COCCOCCNC(=O)CC[C@H](NC(=O)CCCCCCCCCCCCCCCCCCC(=O)O)C(=O)O)C(=O)N[C@@H](CC(C)C)C(=O)N[C@@H](CCC(=O)O)C(=O)NCC(=O)NCC(=O)N1CCC[C@H]1C(=O)N[C@@H](CO)C(=O)N[C@@H](CO)C(=O)NCC(=O)N[C@@H](C)C(=O)N1CCC[C@H]1C(=O)N1CCC[C@H]1C(=O)N1CCC[C@H]1C(=O)N[C@@H](CO)C(N)=O)C(C)C` [Example 6], in data set [1], the AUCInf/Dose is reported as 271 hr*kg*nmol/L/nmol, the Cmax/Dose turned out to be 4.07 kg*nmol/L/nmol, the CL/F is 3.69 mL/h/kg and the half-life was 34.8 h. The “% Donor Response (n = 10)” value in data set [2] amounted to 0%.
As to `CC[C@H](C)[C@H](NC(=O)[C@H](CO)NC(=O)[C@H](Cc1ccc(O)cc1)NC(=O)[C@H](CC(=O)O)NC(=O)[C@H](CO)NC(=O)[C@@H](NC(=O)[C@H](Cc1ccccc1)NC(=O)[C@@H](NC(=O)CNC(=O)[C@H](CCC(=O)O)NC(=O)[C@@H](C)NC(=O)[C@@H](N)Cc1ccc(O)cc1)[C@@H](C)O)[C@@H](C)CC)C(=O)N[C@@H](CC(C)C)C(=O)N[C@@H](CC(C)C)C(=O)N[C@@H](CC(=O)O)C(=O)N[C@@H](CCCCN)C(=O)N[C@@H](CCCCNC(=O)COCCOCCNC(=O)COCCOCCNC(=O)CC[C@H](NC(=O)CCCCCCCCCCCCCCCCCCC(=O)O)C(=O)O)C(=O)N[C@@H](C)C(=O)N[C@@H](CCC(N)=O)C(=O)NC(C)(C)C(=O)N[C@@H](CC(=O)O)C(=O)N[C@@H](Cc1ccccc1)C(=O)N[C@H](C(=O)N[C@@H](CC(N)=O)C(=O)N[C@@H](Cc1c[nH]c2ccccc12)C(=O)N[C@@H](CC(C)C)C(=O)N[C@@H](CC(C)C)C(=O)N[C@@H](C)C(=O)N[C@@H](CCC(N)=O)C(=O)NCC(=O)N1CCC[C@H]1C(=O)N[C@@H](CO)C(=O)N[C@@H](CO)C(=O)NCC(=O)N[C@@H](C)C(=O)N1CCC[C@H]1C(=O)N1CCC[C@H]1C(=O)N1CCC[C@H]1C(=O)N[C@@H](CO)C(N)=O)C(C)C` [Example 1], in data set [1], the AUCInf/Dose is 280 hr*kg*nmol/L/nmol, the Cmax/Dose worked out at 3.62 kg*nmol/L/nmol, the CL/F was 3.57 mL/h/kg and the Tmax worked out at 24 h. This compound also showed a half-life in data set [1] of 37.4 h. For the same compound, the “% Donor Response (n = 10)” value in data set [2] came out at 0%.
With `CC[C@H](C)[C@H](NC(=O)[C@H](CO)NC(=O)[C@H](Cc1ccc(O)cc1)NC(=O)[C@H](CC(=O)O)NC(=O)[C@H](CO)NC(=O)[C@@H](NC(=O)[C@H](Cc1ccccc1)NC(=O)[C@@H](NC(=O)CNC(=O)[C@H](CCC(=O)O)NC(=O)[C@@H](C)NC(=O)[C@@H](N)Cc1ccc(O)cc1)[C@@H](C)O)[C@@H](C)CC)C(=O)N[C@@H](CC(C)C)C(=O)N[C@@H](CC(C)C)C(=O)N[C@@H](CC(=O)O)C(=O)N[C@@H](CCCCN)C(=O)N[C@@H](CCCCNC(=O)COCCOCCNC(=O)COCCOCCNC(=O)CC[C@H](NC(=O)CCCCCCCCCCCCCCCCC(=O)O)C(=O)O)C(=O)N[C@@H](C)C(=O)N[C@@H](CCC(N)=O)C(=O)NC(C)(C)C(=O)N[C@@H](CC(=O)O)C(=O)N[C@@H](Cc1ccccc1)C(=O)N[C@H](C(=O)N[C@@H](CC(N)=O)C(=O)N[C@@H](Cc1c[nH]c2ccccc12)C(=O)N[C@@H](CC(C)C)C(=O)N[C@@H](CC(C)C)C(=O)N[C@@H](C)C(=O)N[C@@H](CCC(N)=O)C(=O)NCC(=O)N1CCC[C@H]1C(=O)N[C@@H](CO)C(=O)N[C@@H](CO)C(=O)NCC(=O)N[C@@H](C)C(=O)N1CCC[C@H]1C(=O)N1CCC[C@H]1C(=O)N1CCC[C@H]1C(=O)N[C@@H](CO)C(N)=O)C(C)C` [Example 2], in data set [1], the AUCInf/Dose stood at 304 hr*kg*nmol/L/nmol, the Cmax/Dose is 5.47 kg*nmol/L/nmol, the CL/F is 3.3 mL/h/kg and the Tmax was 12 h. The half-life in data set [1] is 26.9 h. Moreover, the “% Donor Response (n = 10)” value in data set [2] was 10%.
